From publication PMC6858927 (Investigational new drugs, 2019)
Read-outs that look alike come from different tables or passages of the source.

[1] = Cohort A: 200mg, cytarabine, Daunorubicin (n=5), Total
[2] = Cohort A: 200mg, cytarabine, Daunorubicin (n=5), grade 1&2
[3] = Cohort A: 200mg, cytarabine, Daunorubicin (n=5), grade 3+
[4] = Cohort B Dose 2: 400mg, Decitabine (n=2), Total
[5] = Cohort B Dose 2: 400mg, Decitabine (n=2), grade 1&2
[6] = Cohort B Dose 2: 400mg, Decitabine (n=2), grade 3+

C1=C/COCc2cc(ccc2OCCN2CCCC2)Nc2nccc(n2)-c2cccc(c2)COC/1 [Pacritinib, 11-(2-pyrrolidin-1-yl-ethoxy)-14,19-dioxa-5,7,26-triaza-tetracyclo[19.3.1.1(2,6). 1(8,12)]heptacosa-1(25),2(26),3,5,8,10,12(27),16,21,23-decaene]
2 (40): HYPOXIA, patients (%) [1] | MUCOSITIS ORAL, patients (%) [1] | NEUTROPHIL COUNT DECREASED, patients (%) [1] | RASH MACULO-PAPULAR, patients (%) [1] | RASH, patients (%) [1] | RESPIRATORY FAILURE, patients (%) [1] | HYPOALBUMINEMIA, patients (%) [2] | MUCOSITIS ORAL, patients (%) [2] | RASH, patients (%) [2] | HYPOXIA, patients (%) [3] | LYMPHOCYTE COUNT DECREASED, patients (%) [3] | NEUTROPHIL COUNT DECREASED, patients (%) [3] | RESPIRATORY FAILURE, patients (%) [3]
2 (100): ANEMIA, patients (%) [4]
0: VOMITING, patients (%) [1] | ANEMIA, patients (%) [2] | ANOREXIA, patients (%) [2] | CONSTIPATION, patients (%) [2] | FEBRILE NEUTROPENIA, patients (%) [2] | HYPOPHOSPHATEMIA, patients (%) [2] | HYPOXIA, patients (%) [2] | LUNG INFECTION, patients (%) [2] | NEUTROPHIL COUNT DECREASED, patients (%) [2] | PLATELET COUNT DECREASED, patients (%) [2] | RESPIRATORY FAILURE, patients (%) [2] | VOMITING, patients (%) [2] | WHITE BLOOD CELL DECREASED, patients (%) [2] | ACTIVATED PARTIAL THROMBOPLASTIN TIME PROLONGED, patients (%) [3] | ANOREXIA, patients (%) [3] | CONSTIPATION, patients (%) [3] | DIARRHEA, patients (%) [3] | DYSPNEA, patients (%) [3] | EDEMA LIMBS, patients (%) [3] | ELECTROCARDIOGRAM QT CORRECTED INTERVAL PROLONGED, patients (%) [3] | FATIGUE, patients (%) [3] | HYPERGLYCEMIA, patients (%) [3] | HYPOALBUMINEMIA, patients (%) [3] | HYPOKALEMIA, patients (%) [3] | MUCOSITIS ORAL, patients (%) [3] | NAUSEA, patients (%) [3] | PLEURAL EFFUSION, patients (%) [3] | PRURITUS, patients (%) [3] | RASH, patients (%) [3] | VOMITING, patients (%) [3] | ACTIVATED PARTIAL THROMBOPLASTIN TIME PROLONGED, patients (%) [4] | ANOREXIA, patients (%) [4] | DIARRHEA, patients (%) [4] | EDEMA LIMBS, patients (%) [4] | ELECTROCARDIOGRAM QT CORRECTED INTERVAL PROLONGED, patients (%) [4] | FATIGUE, patients (%) [4] | FEBRILE NEUTROPENIA, patients (%) [4] | HYPOALBUMINEMIA, patients (%) [4] | HYPOPHOSPHATEMIA, patients (%) [4] | HYPOXIA, patients (%) [4] | LUNG INFECTION, patients (%) [4] | MUCOSITIS ORAL, patients (%) [4] | PLEURAL EFFUSION, patients (%) [4] | PRURITUS, patients (%) [4] | RASH MACULO-PAPULAR, patients (%) [4] | RASH, patients (%) [4] | RESPIRATORY FAILURE, patients (%) [4] | ACTIVATED PARTIAL THROMBOPLASTIN TIME PROLONGED, patients (%) [5] | ANOREXIA, patients (%) [5] | DIARRHEA, patients (%) [5] | EDEMA LIMBS, patients (%) [5] | ELECTROCARDIOGRAM QT CORRECTED INTERVAL PROLONGED, patients (%) [5] | FATIGUE, patients (%) [5] | FEBRILE NEUTROPENIA, patients (%) [5] | HYPOALBUMINEMIA, patients (%) [5] | HYPOKALEMIA, patients (%) [5] | HYPOPHOSPHATEMIA, patients (%) [5] | HYPOXIA, patients (%) [5] | LUNG INFECTION, patients (%) [5] | LYMPHOCYTE COUNT DECREASED, patients (%) [5] | MUCOSITIS ORAL, patients (%) [5] | NAUSEA, patients (%) [5] | NEUTROPHIL COUNT DECREASED, patients (%) [5] | PLATELET COUNT DECREASED, patients (%) [5] | PLEURAL EFFUSION, patients (%) [5] | PRURITUS, patients (%) [5] | RASH MACULO-PAPULAR, patients (%) [5] | RASH, patients (%) [5] | RESPIRATORY FAILURE, patients (%) [5] | WHITE BLOOD CELL DECREASED, patients (%) [5] | ACTIVATED PARTIAL THROMBOPLASTIN TIME PROLONGED, patients (%) [6] | ANOREXIA, patients (%) [6] | CONSTIPATION, patients (%) [6] | DIARRHEA, patients (%) [6] | DYSPNEA, patients (%) [6] | EDEMA LIMBS, patients (%) [6] | ELECTROCARDIOGRAM QT CORRECTED INTERVAL PROLONGED, patients (%) [6] | FATIGUE, patients (%) [6] | FEBRILE NEUTROPENIA, patients (%) [6] | HYPERGLYCEMIA, patients (%) [6]
4 (80): PRURITUS, patients (%) [1] | WHITE BLOOD CELL DECREASED, patients (%) [1] | ELECTROCARDIOGRAM QT CORRECTED INTERVAL PROLONGED, patients (%) [2] | PRURITUS, patients (%) [2] | WHITE BLOOD CELL DECREASED, patients (%) [3]
1 (50): CONSTIPATION, patients (%) [4] | DYSPNEA, patients (%) [4] | HYPERGLYCEMIA, patients (%) [4] | HYPERTENSION, patients (%) [4] | HYPOKALEMIA, patients (%) [4] | LYMPHOCYTE COUNT DECREASED, patients (%) [4] | NAUSEA, patients (%) [4] | NEUTROPHIL COUNT DECREASED, patients (%) [4] | PLATELET COUNT DECREASED, patients (%) [4] | VOMITING, patients (%) [4] | WHITE BLOOD CELL DECREASED, patients (%) [4] | ANEMIA, patients (%) [5] | CONSTIPATION, patients (%) [5] | DYSPNEA, patients (%) [5] | HYPERGLYCEMIA, patients (%) [5] | HYPERTENSION, patients (%) [5] | VOMITING, patients (%) [5] | ANEMIA, patients (%) [6]
Four: ELECTROCARDIOGRAM QT CORRECTED INTERVAL PROLONGED, patients (%) (Cohort A: 200mg, cytarabine, Daunorubicin (n=5), grade 1&2, listed as pacritinib)
3 (60): LYMPHOCYTE COUNT DECREASED, patients (%) [1] | NAUSEA, patients (%) [1] | DIARRHEA, patients (%) [2] | FATIGUE, patients (%) [2] | NAUSEA, patients (%) [2] | ANEMIA, patients (%) [3] | FEBRILE NEUTROPENIA, patients (%) [3]
5 (100): PLATELET COUNT DECREASED, patients (%) [1] | PLATELET COUNT DECREASED, patients (%) [3]
1 (20): LUNG INFECTION, patients (%) [1] | PLEURAL EFFUSION, patients (%) [1] | ACTIVATED PARTIAL THROMBOPLASTIN TIME PROLONGED, patients (%) [2] | DYSPNEA, patients (%) [2] | EDEMA LIMBS, patients (%) [2] | HYPERGLYCEMIA, patients (%) [2] | HYPERTENSION, patients (%) [2] | HYPOKALEMIA, patients (%) [2] | LYMPHOCYTE COUNT DECREASED, patients (%) [2] | PLEURAL EFFUSION, patients (%) [2] | RASH MACULO-PAPULAR, patients (%) [2] | HYPERTENSION, patients (%) [3] | HYPOPHOSPHATEMIA, patients (%) [3] | LUNG INFECTION, patients (%) [3] | RASH MACULO-PAPULAR, patients (%) [3]
